For orientation: IC50 means the concentration that inhibits the measured activity by half. Higher therefore signals a need for much substance.

Results on 23 molecules are retold here after EP3720857B1, “2-OXO-5H-CHROMENO[4,3-B]PYRIDINES FOR USE IN THE TREATMENT OF HEPATITIS B” (Galapagos NV, priority 2017, dated 2019).

This experiment relates to hepatitis virus B (HBV) infection. The experiment can be described thus: HepG2 NTCP assay (HBcAg staining as marker of HBV infection). It counts as cell-based. As to conditions: HepG2-NTCP cells infected with HBV, HBV core antigen (HBcAg) as marker of infection. The source says: The principle of the hepG2-NTCP assay is to measure the effect of a test compound on the inhibition of the hepatitis virus B (HBV) infection compared to a reference compound. To be able to infect the hepatocellular carcinoma cells (HepG2) with HBV, HepG2 cells were stably transfected with the Na+-taurocholate co-transporting polypeptide (NTCP) receptor, also referred to as Sodium/bile acid cotransporter (SLC10A1), which is necessary for HBV infection. In this assay the HBV core antigen (HBcAg) is used as a marker of HBV infection. Nuclei count is used as an indication for compound toxicity.
On day one, HepG2-NTCP cells ((Ni et al., 2014)) are seeded at 5000 cells in 50 µL per well in assay medium (DMEM high glucose supplemented with 10% non-heat inactivated (non HI) fetal bovine serum (FBS), 1% P/S, 1% L-glutamine and 1% MEM NEAA) in 384 well plate and incubated at 37°C, 5% CO2 overnight.
Compounds are prepared as 10 point serial dilutions using 1/3 dilution steps in 100% DMSO starting from 10 mM highest concentration, unless otherwise requested for very potent compounds, which started from 5mM or 1mM stock. Compounds are further diluted 1/500 in assay medium.
A negative control (vehicle: 24 wells with 0.2% DMSO) and positive control (24 wells with 100nM Myrcludex B (Cas no.: 406461-66-3), 0.2% DMSO and in 10 point DR) are included in the experiments.
On the second day, 40µl medium is removed from the cells with the plate washer (Select 405 microplate washer, Biotek). 15 µL of diluted compound series is transferred to the assay plate and cells are infected with 15 µL of HBV mix (HBV virus, 4%PEG, 1%DMSO in assay medium). The infection is performed in assay medium containing final concentration of 1% DMSO. The assay plate is incubated at 37°C, 5% CO2 overnight.
The next day, 30µl compound and HBV mix are removed from the assay plate with the plate washer and 30 µL of compound series diluted 1/500 in assay medium containing final concentration of 2.5% DMSO is added to the cell assay plate. The assay plate is incubated at 37°C, 5% CO2 for 5 days.
After 5 days of incubation, supernatant is removed from the cells with the plate washer. Cells are fixed with 50 µL of 3.7% formaldehyde added with the Well mate (Matrix technologies) and incubated for 30 min at room temperature. After fixation, cells are washed four times with phosphate buffer saline (1xPBS, 137mM NaCl, 10mM na2HPO4, 2.7mM KCl, 1.8mM KH2PO4 at pH7.4). The cells are finally subjected to HBc staining.
First, the assay plate is blocked with blocking buffer (2%FBS, 3% BSA, 0.2% TritonX100 in PBS) for 1 h at room temperature (optional to block overnight at 4°C).
After 4 washes of PBST (1XPBS + 0.05% Tween) with the plate washer, the assay plate is incubated with 30 µL diluted primary antibody (1/700 Rabbit anti-HBV core antigen, Dako, B0586 or 1/350 Rabbit anti HBV core antigen, Invitrogen, PA516368) in blocking buffer and incubated for 90 min at room temperature.
After 4 washes of PBST with the plate washer, the assay plate is incubated with 50 µL of secondary antibody (Donkey-anti-rabbit Alexa 488 antibody, Lifetechnologies A21206) 1/500 diluted in blocking buffer and incubated for 60 min at room temperature and in the dark.
The assay plate is washed 4 times with PBST on the plate washer and incubated with 50µL of DAPI (Sigma D9542, stock 5mg/mL) 1/10000 diluted in PBS for 15-30 min at room temperature and in the dark. The assay plate is now ready for read out on the InCell Analyzer 2200 (GE Healthcare).
Raw data are generated following read-out performed on InCell 2200 and are imported into the galapagos LIMS for automated calculation of percentage inhibition (PIN) and toxicity by nuclei count, using the control wells mentioned above, and creation of Dose Response curves. Table V. Hepg2 NTCP assay activity of illustrative compounds of the invention
Molecule `COCCCOc1cc2c(cc1Cl)-c1c(cc(C(=O)O)c(=O)n1C1CCC1)C(C1(C)COC1)O2` (centres unmarked) [Compound 48, 9-chloro-1-cyclobutyl-8-(3-methoxypropoxy) -5-(3-methyloxetan-3-yl)-2-oxo-5H-chromeno[4,3-b]pyridine-3-carboxylic acid] gave a half-maximal inhibitory concentration (IC50) of 0.001 to 1 nM.
`COCCCOc1cc2c(cc1F)-c1c(cc(C(=O)O)c(=O)n1C1CC1)C(C1(C)COC1)O2` (centres unmarked) [Compound 49, 1-cyclopropyl-9-fluoro-8-(3-methoxypropoxy) -5-(3-methyloxetan-3-yl)-2-oxo-5H-chromeno[4,3-b]pyridine-3-carboxylic acid] displayed an IC50 of 0.001 to 1 nM.
With `CC(C)C1Oc2cc(OC[C@@H]3COCCO3)c(Cl)cc2-c2c1cc(C(=O)O)c(=O)n2C1CC1` (stereo partly drawn) [Compound 50, 9-chloro-1-cyclopropyl-8-[[(2S)-1,4-dioxan-2-yl]methoxy]-5-isopropyl-2-oxo-5H-chromeno[4,3-b]pyridine-3-carboxylic acid] the figure was 0.001 to 1 nM; with `CC(C)C1Oc2cc(OC[C@H]3COCCO3)c(Cl)cc2-c2c1cc(C(=O)O)c(=O)n2C1CC1` (stereo partly drawn) [Compound 51, 9-chloro-1-cyclopropyl-8-[[(2R)-1,4-dioxan-2-yl]methoxy]-5-isopropyl-2-oxo-5H-chromeno[4,3-b]pyridine-3-carboxylic acid], 0.001 to 1 nM; with `CC(C)C1Oc2cc(OCC3(C)COC3)c(Cl)cc2-c2c1cc(C(=O)O)c(=O)n2C1CC1` (centres unmarked) [Compound 52, 9-chloro-1-cyclopropyl-5-isopropyl-8-[(3-methyloxetan-3-yl)methoxy]-2-oxo-5H-chromeno[4,3-b]pyridine-3-carboxylic acid], 0.001 to 1 nM.
In turn, `COCCCOc1cc2c(cc1Cl)-c1c(cc(C(=O)O)c(=O)n1C1CC1)C(C1CCOC1)O2` (centres unmarked) [Compound 53, 9-chloro-1-cyclopropyl-8-(3-methoxypropoxy) -2-oxo-5-tetrahydrofuran-3-yl-5H-chromeno[4,3-b]pyridine-3-carboxylic acid] had an IC50 of 0.001 to 1 nM.
With `COCCCOc1cc2c(cc1Cl)-c1c(cc(C(=O)O)c(=O)n1C1CC1)C(C1CCOCC1)O2` (centres unmarked) [Compound 54, 9-chloro-1-cyclopropyl-8-(3-methoxypropoxy) -2-oxo-5-tetrahydropyran-4-yl-5H-chromeno[4,3-b]pyridine-3-carboxylic acid] the figure was 0.001 to 1 nM.
With `COc1cc2c(cc1Cl)-c1c(cc(C(=O)O)c(=O)n1C1CC1)C(C1(C)COC1)O2` (centres unmarked) [Compound 55, 9-chloro-1-cyclopropyl-8-methoxy-5-(3-methyloxetan-3-yl)-2-oxo-5H-chromeno[4,3-b]pyridine-3-carboxylic acid] the figure was 0.001 to 1 nM.
For the molecule `CCOc1cc2c(cc1Cl)-c1c(cc(C(=O)O)c(=O)n1C1CC1)C(C1(C)COC1)O2` (centres unmarked) [Compound 56, 9-chloro-1-cyclopropyl-8-ethoxy-5-(3-methyloxetan-3-yl)-2-oxo-5H-chromeno[4,3-b]pyridine-3-carboxylic acid], the IC50 was 0.001 to 1 nM.
Consider `CC1(C2Oc3cc(OCC4CC4)c(Cl)cc3-c3c2cc(C(=O)O)c(=O)n3C2CC2)COC1` (centres unmarked) [Compound 57, 9-chloro-1-cyclopropyl-8-(cyclopropylmethoxy)-5-(3-methyloxetan-3-yl)-2-oxo-5H-chromeno[4,3-b]pyridine-3-carboxylic acid], for which the IC50 fell in the range of 1 to 20 nM.
For the molecule `[2H]C([2H])([2H])Oc1cc2c(cc1Cl)-c1c(cc(C(=O)O)c(=O)n1C1CC1)C(C1(C)COC1)O2` (centres unmarked) [Compound 58, 9-chloro-1-cyclopropyl-5-(3-methyloxetan-3-yl)-2-oxo-8-(trideuteriomethoxy)-5H-chromeno[4,3-b]pyridine-3-carboxylic acid], the IC50 was 0.001 to 1 nM.
With `O=C(O)c1cc2c(n(C3CC3)c1=O)-c1cc(F)c(F)cc1OC2` [Compound 59, 1-cyclopropyl-8,9-difluoro-2-oxo-5H-chromeno[4,3-b]pyridine-3-carboxylic acid] the figure was over 100 nM; with `O=C(O)c1cc2c(n(C3CC3)c1=O)-c1cc(Cl)c(F)cc1OC2` [Compound 60, 9-chloro-1-cyclopropyl-8-fluoro-2-oxo-5H-chromeno[4,3-b]pyridine-3-carboxylic acid], over 100 nM.
With `O=C(O)c1cc2c(n(C3CC3)c1=O)-c1cc(Cl)c(Cl)cc1OC2` [Compound 61, 8,9-dichloro-1-cyclopropyl-2-oxo-5H-chromeno[4,3-b]pyridine-3-carboxylic acid] the figure was 1 to 20 nM.
With `COCCCOc1cc2c(cc1C(F)(F)F)-c1c(cc(C(=O)O)c(=O)n1C1CC1)C(C(C)C)O2` (centres unmarked) [Compound 62, 1-cyclopropyl-5-isopropyl-8-(3-methoxypropoxy) -2-oxo-9-(trifluoromethyl)-5H-chromeno[4,3-b]pyridine-3-carboxylic acid] the figure was 0.001 to 1 nM.
For `COCCCOc1cc2c(cc1S(C)(=O)=O)-c1c(cc(C(=O)O)c(=O)n1C1CC1)C(C(C)C)O2` (centres unmarked) [Compound 63, 1-cyclopropyl-5-isopropyl-8-(3-methoxypropoxy) -9-methylsulfonyl-2-oxo-5H-chromeno[4,3-b]pyridine-3-carboxylic acid], the IC50 lay within 1 to 20 nM.
With `CC(C)C1Oc2cc(OCC3COC3)c(F)cc2-c2c1cc(C(=O)O)c(=O)n2C1CC1` (centres unmarked) [Compound 64, 1-cyclopropyl-9-fluoro-5-isopropyl-8-(oxetan-3-ylmethoxy)-2-oxo-5H-chromeno[4,3-b]pyridine-3-carboxylic acid] the figure was 1 to 20 nM; with `CC(C)C1Oc2cc(OCC3(C)COC3)c(F)cc2-c2c1cc(C(=O)O)c(=O)n2C1CC1` (centres unmarked) [Compound 65, 1-cyclopropyl-9-fluoro-5-isopropyl-8-[(3-methyloxetan-3-yl)methoxy]-2-oxo-5H-chromeno[4,3-b]pyridine-3-carboxylic acid], 0.001 to 1 nM; with `COc1cc2c(cc1Cl)-c1c(cc(C(=O)O)c(=O)n1C1CC1)[C@@H](C1(C)COC1)O2` [Compound 66, (5S)-9-chloro-1-cyclopropyl-8-methoxy-5-(3-methyloxetan-3-yl)-2-oxo-5H-chromeno[4,3-b]pyridine-3-carboxylic acid], 1 to 20 nM.
Molecule `COc1cc2c(cc1Cl)-c1c(cc(C(=O)O)c(=O)n1C1CC1)[C@H](C1(C)COC1)O2` [Compound 67, (5R)-9-chloro-1-cyclopropyl-8-methoxy-5-(3-methyloxetan-3-yl)-2-oxo-5H-chromeno[4,3-b]pyridine-3-carboxylic acid] registered an IC50 of 0.001 to 1 nM.
With `CC1(C2Oc3cc(OCC(F)(F)F)c(Cl)cc3-c3c2cc(C(=O)O)c(=O)n3C2CC2)COC1` (centres unmarked) [Compound 68, 9-chloro-1-cyclopropyl-5-(3-methyloxetan-3-yl)-2-oxo-8-(2,2,2-trifluoroethoxy)-5H-chromeno[4,3-b]pyridine-3-carboxylic acid] the figure was 0.001 to 1 nM; with `CC1(C2Oc3cc(OC[C@H]4COCCO4)c(Cl)cc3-c3c2cc(C(=O)O)c(=O)n3C2CC2)COC1` (stereo partly drawn) [Compound 69, 9-chloro-1-cyclopropyl-8-[[(2R)-1,4-dioxan-2-yl]methoxy]-5-(3-methyloxetan-3-yl)-2-oxo-5H-chromeno[4,3-b]pyridine-3-carboxylic acid], 0.001 to 1 nM; with `CC1(C2Oc3cc(OC(F)F)c(Cl)cc3-c3c2cc(C(=O)O)c(=O)n3C2CC2)COC1` (centres unmarked) [Compound 70, 9-chloro-1-cyclopropyl-8-(difluoromethoxy)-5-(3-methyloxetan-3-yl)-2-oxo-5H-chromeno[4,3-b]pyridine-3-carboxylic acid], 1 to 20 nM.
